pIC50: −log10 of the molar value.
Test system: 953936-095-R-J2-PDC spheroids with HUVEC/MSC, viability
Experiment: Anticancer human tumor 953936-095-R-J2-PDC patient-derived cervical squamous cell carcinoma cell line growth inhibition [PI3K]
Details: for pIC50: curve of first compound; for viability, T/C: stronger effect = lower value; active means viability on the fitted dose curve at most 10% of control; inactive means the rest
Outline: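 Tumor cells grown as multi-cell spheroids with HUVEC endothelial cells and MSC fibroblast-like stroma were treated with targeted agents combined with inavolisib, alpelisib, duvelisib or copanlisib. Doses fell in half-log steps from near clinical Cmax, else from 10 microM. Viability was measured.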

[1] = second compound 0.0316 µM, first compound 0.0316 µM
[2] = second compound 0.0316 µM, first compound 0.1 µM
[3] = second compound 0.0316 µM, first compound 0.316 µM
[4] = second compound 0.0316 µM, first compound 1 µM
[5] = second compound 0.0316 µM, first compound 3.16 µM
[6] = second compound 0.0316 µM, first compound 10 µM
[7] = second compound 0.1 µM, first compound 0.0316 µM
[8] = second compound 0.1 µM, first compound 0.1 µM
[9] = second compound 0.1 µM, first compound 0.316 µM
[10] = second compound 0.1 µM, first compound 1 µM
[11] = second compound 0.1 µM, first compound 3.16 µM
[12] = second compound 0.1 µM, first compound 10 µM
[13] = second compound 0.316 µM, first compound 0.0316 µM
[14] = second compound 0.316 µM, first compound 0.1 µM
[15] = second compound 0.316 µM, first compound 0.316 µM
[16] = second compound 0.316 µM, first compound 1 µM
[17] = second compound 0.316 µM, first compound 3.16 µM
[18] = second compound 0.316 µM, first compound 10 µM
[19] = second compound 1 µM, first compound 0.0316 µM
[20] = second compound 1 µM, first compound 0.1 µM
[21] = second compound 1 µM, first compound 0.316 µM
[22] = second compound 1 µM, first compound 1 µM
[23] = second compound 1 µM, first compound 3.16 µM
[24] = second compound 1 µM, first compound 10 µM
[25] = second compound 3.16 µM, first compound 0.0316 µM
[26] = second compound 3.16 µM, first compound 0.1 µM
[27] = second compound 3.16 µM, first compound 0.316 µM
[28] = second compound 3.16 µM, first compound 1 µM
[29] = second compound 3.16 µM, first compound 3.16 µM
[30] = second compound 3.16 µM, first compound 10 µM
[31] = second compound 10 µM, first compound 0.0316 µM
[32] = second compound 10 µM, first compound 0.1 µM
[33] = second compound 10 µM, first compound 0.316 µM
[34] = second compound 10 µM, first compound 1 µM
[35] = second compound 10 µM, first compound 3.16 µM
[36] = second compound 10 µM, first compound 10 µM
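Further: spheroids exposed to compounds for seven days before read-out.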

C#Cc1c(F)ccc2cc(O)cc(-c3ncc4c(N5CC6CCC(C5)N6)nc(OCC56CCCN5CC(F)C6)nc4c3F)c12 (stereo not given) + Cc1nc(NC(=O)N2CCCC2C(N)=O)sc1-c1ccnc(C(C)(C)C(F)(F)F)c1
active: viability, T/C [32] 10% | viability, T/C [33] 8.35% | viability, T/C [34] 7.39% | viability, T/C [35] 6.74% | viability, T/C [36] 4.92%
> 7.50: pIC50 (second compound 1 µM) | pIC50 (second compound 3.16 µM) | pIC50 (second compound 10 µM)
5.87: pIC50 (second compound 0.316 µM)
< 5.00: pIC50 (second compound 0.0316 µM) | pIC50 (second compound 0.1 µM)
inactive: viability, T/C [1] 97.6% | viability, T/C [2] 102% | viability, T/C [3] 92.3% | viability, T/C [4] 82.2% | viability, T/C [5] 71.3% | viability, T/C [6] 67.9% | viability, T/C [7] 79.7% | viability, T/C [8] 81.7% | viability, T/C [9] 92.8% | viability, T/C [10] 74.6% | viability, T/C [11] 61.9% | viability, T/C [12] 51.9% | viability, T/C [13] 64.7% | viability, T/C [14] 59.1% | viability, T/C [15] 57% | viability, T/C [16] 49.4% | viability, T/C [17] 48.9% | viability, T/C [18] 38.2% | viability, T/C [19] 43.8% | viability, T/C [20] 42.3% | viability, T/C [21] 39% | viability, T/C [22] 34.7% | viability, T/C [23] 28.3% | viability, T/C [24] 21.6% | viability, T/C [25] 25.2% | viability, T/C [26] 23.8% | viability, T/C [27] 22.5% | viability, T/C [28] 17.2% | viability, T/C [29] 12.3% | viability, T/C [30] 10.1% | viability, T/C [31] 10.3%

C=CC(=O)N1CCN(c2nc(=O)n(-c3c(C)ccnc3C(C)C)c3nc(-c4c(O)cccc4F)c(F)cc23)C(C)C1 (stereo not given) + Cc1nc(NC(=O)N2CCCC2C(N)=O)sc1-c1ccnc(C(C)(C)C(F)(F)F)c1
inactive: viability, T/C [1] 85.5% | viability, T/C [2] 89.2% | viability, T/C [3] 95.8% | viability, T/C [4] 109% | viability, T/C [5] 110% | viability, T/C [6] 105% | viability, T/C [7] 81.9% | viability, T/C [8] 83.7% | viability, T/C [9] 90.2% | viability, T/C [10] 98.6% | viability, T/C [11] 123% | viability, T/C [12] 117% | viability, T/C [13] 64.5% | viability, T/C [14] 65.7% | viability, T/C [15] 68.8% | viability, T/C [16] 86% | viability, T/C [17] 84.4% | viability, T/C [18] 73.7% | viability, T/C [19] 46% | viability, T/C [20] 52.1% | viability, T/C [21] 47.7% | viability, T/C [22] 51.5% | viability, T/C [23] 55.9% | viability, T/C [24] 48% | viability, T/C [25] 27% | viability, T/C [26] 27.8% | viability, T/C [27] 27% | viability, T/C [28] 32.8% | viability, T/C [29] 33.4% | viability, T/C [30] 26.1% | viability, T/C [31] 11.5% | viability, T/C [32] 11.8% | viability, T/C [33] 11.9% | viability, T/C [34] 11.9% | viability, T/C [35] 10.8% | viability, T/C [36] 7.49%
< 5.00: pIC50 (second compound 0.0316 µM) | pIC50 (second compound 0.1 µM) | pIC50 (second compound 0.316 µM)
> 7.50: pIC50 (second compound 1 µM) | pIC50 (second compound 3.16 µM) | pIC50 (second compound 10 µM)

CC(Cn1ccc(-c2ccc(C#N)c(Cl)c2)n1)NC(=O)c1cc(C(C)O)[nH]n1 (stereo not given) + Cc1nc(NC(=O)N2CCCC2C(N)=O)sc1-c1ccnc(C(C)(C)C(F)(F)F)c1
> 7.50: pIC50 (second compound 1 µM) | pIC50 (second compound 3.16 µM) | pIC50 (second compound 10 µM)
inactive: viability, T/C [1] 83.7% | viability, T/C [2] 95.2% | viability, T/C [3] 86.4% | viability, T/C [4] 96.9% | viability, T/C [5] 89.8% | viability, T/C [6] 107% | viability, T/C [7] 84.8% | viability, T/C [8] 77.9% | viability, T/C [9] 78.2% | viability, T/C [10] 81.2% | viability, T/C [11] 82.4% | viability, T/C [12] 79.5% | viability, T/C [13] 69.4% | viability, T/C [14] 65.3% | viability, T/C [15] 74.1% | viability, T/C [16] 61% | viability, T/C [17] 61.7% | viability, T/C [18] 66.5% | viability, T/C [19] 43.9% | viability, T/C [20] 41.7% | viability, T/C [21] 43.5% | viability, T/C [22] 45.9% | viability, T/C [23] 44.1% | viability, T/C [24] 44.6% | viability, T/C [25] 24.7% | viability, T/C [26] 26.9% | viability, T/C [27] 27.6% | viability, T/C [28] 25.2% | viability, T/C [29] 26.9% | viability, T/C [30] 28.4% | viability, T/C [31] 10.3% | viability, T/C [32] 10.8% | viability, T/C [33] 10.9% | viability, T/C [34] 11.1% | viability, T/C [35] 10.8% | viability, T/C [36] 13%
< 5.00: pIC50 (second compound 0.0316 µM) | pIC50 (second compound 0.1 µM) | pIC50 (second compound 0.316 µM)

CC1(C)CCC(Nc2ncc(C(F)(F)F)c(-c3c[nH]c4c(P(C)(C)=O)c(C#N)ccc34)n2)CN1 (stereo not given) + Cc1nc(NC(=O)N2CCCC2C(N)=O)sc1-c1ccnc(C(C)(C)C(F)(F)F)c1
> 7.50: pIC50 (second compound 0.316 µM) | pIC50 (second compound 1 µM) | pIC50 (second compound 3.16 µM) | pIC50 (second compound 10 µM)
7.50: pIC50 (second compound 0.0316 µM) | pIC50 (second compound 0.1 µM)
inactive: viability, T/C [1] 45.1% | viability, T/C [2] 50% | viability, T/C [3] 46.5% | viability, T/C [4] 52.4% | viability, T/C [5] 55.8% | viability, T/C [7] 45.9% | viability, T/C [8] 39.1% | viability, T/C [9] 42.2% | viability, T/C [10] 42.6% | viability, T/C [11] 54.3% | viability, T/C [13] 38.9% | viability, T/C [14] 37.8% | viability, T/C [15] 40.8% | viability, T/C [16] 38.9% | viability, T/C [17] 38.3% | viability, T/C [19] 30.8% | viability, T/C [20] 27.1% | viability, T/C [21] 26% | viability, T/C [22] 28.1% | viability, T/C [23] 33.4% | viability, T/C [24] 1.62% | viability, T/C [25] 18.2% | viability, T/C [26] 19.4% | viability, T/C [27] 17.2% | viability, T/C [28] 20.1% | viability, T/C [29] 13.8% | viability, T/C [31] 9.15% | viability, T/C [32] 9.91%
active: viability, T/C [6] 8.23% | viability, T/C [12] 5.8% | viability, T/C [18] 3.36% | viability, T/C [30] 0.46% | viability, T/C [33] 10.7% | viability, T/C [34] 10.3% | viability, T/C [35] 5.73% | viability, T/C [36] 0.31%

Cn1nccc1Nc1nccc(-c2ccn(C(CO)c3ccc(Cl)c(F)c3)c(=O)c2)n1 (stereo not given) + Cc1nc(NC(=O)N2CCCC2C(N)=O)sc1-c1ccnc(C(C)(C)C(F)(F)F)c1
inactive: viability, T/C [1] 77.7% | viability, T/C [2] 89.9% | viability, T/C [3] 78.3% | viability, T/C [4] 69.5% | viability, T/C [5] 72.9% | viability, T/C [6] 67.1% | viability, T/C [7] 77.1% | viability, T/C [8] 76.3% | viability, T/C [9] 66.7% | viability, T/C [10] 74.3% | viability, T/C [11] 63% | viability, T/C [12] 68.5% | viability, T/C [13] 63.3% | viability, T/C [14] 55.9% | viability, T/C [15] 52.6% | viability, T/C [16] 56.4% | viability, T/C [17] 57.7% | viability, T/C [18] 52.6% | viability, T/C [19] 45.3% | viability, T/C [20] 39.7% | viability, T/C [21] 38.8% | viability, T/C [22] 37.6% | viability, T/C [23] 40.1% | viability, T/C [24] 31.9% | viability, T/C [25] 23.5% | viability, T/C [26] 23.9% | viability, T/C [27] 21.1% | viability, T/C [28] 17.2% | viability, T/C [29] 15.2% | viability, T/C [30] 10.8% | viability, T/C [31] 11.4%
> 7.50: pIC50 (second compound 1 µM) | pIC50 (second compound 3.16 µM) | pIC50 (second compound 10 µM)
< 5.00: pIC50 (second compound 0.0316 µM) | pIC50 (second compound 0.1 µM) | pIC50 (second compound 0.316 µM)
active: viability, T/C [32] 9.37% | viability, T/C [33] 6.34% | viability, T/C [34] 4.57% | viability, T/C [35] 3.58% | viability, T/C [36] 1.86%
